Source: patent US8563729B2, “Thienopyridone derivatives as AMP-activated protein kinase (AMPK) activators” (Merck Patent GmbH, priority 2008, dated 2013)

Target: T1, AMPK protein (recombinant α1β1γ2) (Homo sapiens, UniProt Q13131+Q9Y478)
T1 construct: made in house; host or cells: E. coli
Test: AMPK enzymatic activity (Delfia, AMARA peptide substrate)
Assay type: biochemical
Details: compound 30 μM vs AMP 30 μM; 125 μM ATP; ratio 90% or higher = direct activator
Method: The following biological test allows the determination of the efficacy of such compounds of formula (I) onto AMPK protein (recombinant α1β1γ2).
Human recombinant AMPK enzyme was expressed in E. Coli and was reactivated in vitro by LKB1 prior to enzyme activity determination.
AMPK enzyme activities were assayed by using A Delfia technology. AMPK enzyme activities were carried out in microtiter plates (50 mM Hepes buffer, pH 7.4 with 125 μM ATP respectively) in the presence of a synthetic peptide substrate (AMARAASAAALARRR, the “AMARA” peptide) and activators in serial dilutions. Reactions were initiated by the addition of AMPK (50-100 ng). Following mixing, the plates were incubated for 30 min at room temperature. Enzyme activity was assayed by using an anti-phosphoserine antibody to measure the quantity of phosphate incorporated into the AMARAA.
N°: Number of the molecule
Activity: Ratio between the % of control (basal activity) of compound of formula (I) at 30 μM and the % of control (basal activity) of AMP (natural substrate) at 30 μM.
Compounds of formula (I) in the table II are considered as direct activator of AMPK if the ratio is 90% or higher.

T1 sequence (Q13131 whole entry): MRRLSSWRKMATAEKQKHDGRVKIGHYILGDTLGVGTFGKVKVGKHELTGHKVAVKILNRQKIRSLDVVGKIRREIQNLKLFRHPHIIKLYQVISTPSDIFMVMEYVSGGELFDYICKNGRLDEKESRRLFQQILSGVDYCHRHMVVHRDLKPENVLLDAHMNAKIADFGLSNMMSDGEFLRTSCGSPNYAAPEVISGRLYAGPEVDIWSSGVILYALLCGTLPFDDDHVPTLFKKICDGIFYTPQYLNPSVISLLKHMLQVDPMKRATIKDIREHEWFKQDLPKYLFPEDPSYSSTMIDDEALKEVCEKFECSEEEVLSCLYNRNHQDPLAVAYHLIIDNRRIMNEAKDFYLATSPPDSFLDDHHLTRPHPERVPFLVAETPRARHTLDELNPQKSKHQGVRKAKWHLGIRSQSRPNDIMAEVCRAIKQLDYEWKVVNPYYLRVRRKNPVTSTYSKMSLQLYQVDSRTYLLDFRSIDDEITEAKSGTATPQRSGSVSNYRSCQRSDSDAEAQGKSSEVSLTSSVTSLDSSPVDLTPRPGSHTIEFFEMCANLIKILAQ
T1 sequence (Q9Y478 whole entry): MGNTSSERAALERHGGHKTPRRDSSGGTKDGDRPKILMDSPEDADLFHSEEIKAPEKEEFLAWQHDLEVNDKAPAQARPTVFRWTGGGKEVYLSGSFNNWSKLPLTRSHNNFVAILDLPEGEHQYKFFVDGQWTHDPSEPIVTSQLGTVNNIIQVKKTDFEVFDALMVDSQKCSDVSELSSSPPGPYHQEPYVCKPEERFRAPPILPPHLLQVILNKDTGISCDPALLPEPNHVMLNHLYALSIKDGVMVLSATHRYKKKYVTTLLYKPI
T1 sequence (Q9UGJ0 whole entry partner): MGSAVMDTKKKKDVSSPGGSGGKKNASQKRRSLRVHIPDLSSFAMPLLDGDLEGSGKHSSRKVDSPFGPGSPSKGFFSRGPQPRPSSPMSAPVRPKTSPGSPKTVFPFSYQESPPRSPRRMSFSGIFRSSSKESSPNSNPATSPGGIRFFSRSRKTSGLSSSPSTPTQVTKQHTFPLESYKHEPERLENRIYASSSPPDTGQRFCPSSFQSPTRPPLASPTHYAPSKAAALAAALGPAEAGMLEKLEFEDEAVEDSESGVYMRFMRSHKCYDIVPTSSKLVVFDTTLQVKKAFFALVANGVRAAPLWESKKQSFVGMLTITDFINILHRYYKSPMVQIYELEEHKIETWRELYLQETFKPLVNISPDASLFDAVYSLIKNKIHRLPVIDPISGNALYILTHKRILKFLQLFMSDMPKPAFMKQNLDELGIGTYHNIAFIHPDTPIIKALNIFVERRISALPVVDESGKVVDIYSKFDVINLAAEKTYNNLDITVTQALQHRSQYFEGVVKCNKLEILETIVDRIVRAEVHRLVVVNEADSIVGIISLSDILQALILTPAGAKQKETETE

SMILES | activity: Ratio between the % of control (basal activity) of compound of formula (I) at 30 μM and the % of control (basal activity) of AMP at 30 μM [%]
O=C(O)c1sc2[nH]c(=O)c(-c3ccccc3)c(O)c2c1-c1ccccc1 [Compound 3] | 102
O=c1[nH]c2scc(-c3ccccc3)c2c(O)c1-c1ccccc1 [Compound 16] | 107
O=c1[nH]c2scc(-c3ccc(Br)cc3)c2c(O)c1-c1ccccc1 [Compound 25] | 119
O=c1[nH]c2scc(-c3ccc(Br)cc3)c2c(O)c1-c1cccnc1 [Compound 28] | 109
O=c1[nH]c2scc(-c3ccc(Br)cc3)c2c(O)c1-c1ccncc1 [Compound 29] | 103
COc1ccc(-c2csc3[nH]c(=O)c(-c4ccccc4)c(O)c23)cc1 [Compound 32] | 147
O=c1[nH]c2scc(-c3ccc(CO)cc3)c2c(O)c1-c1ccccc1 [Compound 38] | 119
COc1ccc(-c2c(O)c3c(-c4ccc(OC)cc4)csc3[nH]c2=O)cc1 [Compound 40] | 109
O=c1[nH]c2scc(-c3ccc(O)cc3)c2c(O)c1-c1ccc(O)cc1 [Compound 41] | 92
COc1ccc(-c2csc3[nH]c(=O)c(-c4ccc(F)cc4)c(O)c23)cc1 [Compound 42] | 110
COc1ccc(-c2c(O)c3c(-c4ccc(F)cc4)csc3[nH]c2=O)cc1 [Compound 44] | 98
O=c1[nH]c2scc(-c3ccc(F)cc3)c2c(O)c1-c1ccc(O)cc1 [Compound 45] | 114
O=c1[nH]c2scc(-c3cccc(O)c3)c2c(O)c1-c1ccccc1 [Compound 48] | 109
O=c1[nH]c2scc(-c3cccc(F)c3)c2c(O)c1-c1ccccc1 [Compound 49] | 131
Cc1cccc(-c2csc3[nH]c(=O)c(-c4ccccc4)c(O)c23)c1 [Compound 50] | 103
O=c1[nH]c2scc(-c3cccc(CO)c3)c2c(O)c1-c1ccccc1 [Compound 52] | 176
O=c1[nH]c2scc(-c3ccccc3O)c2c(O)c1-c1ccccc1 [Compound 55] | 146
O=c1[nH]c2scc(-c3ccccc3F)c2c(O)c1-c1ccccc1 [Compound 56] | 107
O=c1[nH]c2scc(-c3ccccc3Cl)c2c(O)c1-c1ccccc1 [Compound 58] | 103
COc1ccc(-c2csc3[nH]c(=O)c(-c4ccccc4)c(O)c23)c(OC)c1 [Compound 60] | 100
O=c1[nH]c2scc(-c3ccc(O)cc3O)c2c(O)c1-c1ccccc1 [Compound 61] | 146
O=c1[nH]c2scc(-c3ccc(O)cc3F)c2c(O)c1-c1ccccc1 [Compound 62] | 101
O=c1[nH]c2scc(-c3ccc(F)cc3F)c2c(O)c1-c1ccccc1 [Compound 64] | 109
O=c1[nH]c2scc(-c3ccc(F)cc3O)c2c(O)c1-c1ccccc1 [Compound 66] | 144
O=c1[nH]c2scc(-c3cc(O)cc(O)c3)c2c(O)c1-c1ccccc1 [Compound 68] | 96
COc1ccc(-c2csc3[nH]c(=O)c(-c4ccccc4)c(O)c23)cc1F [Compound 71] | 131

SMILES | activity: Ratio between the % of control (basal activity) of compound of formula (I) at 30 μM and the % of control (basal activity) of AMP at 30 μM [%]
O=c1[nH]c2scc(-c3ccc(O)c(F)c3)c2c(O)c1-c1ccccc1 [Compound 72] | 150
COc1cc(-c2csc3[nH]c(=O)c(-c4ccccc4)c(O)c23)ccc1Br [Compound 73] | 94
O=c1[nH]c2scc(-c3ccc(Br)c(O)c3)c2c(O)c1-c1ccccc1 [Compound 74] | 112
O=c1[nH]c2scc(-c3cc(F)ccc3O)c2c(O)c1-c1ccccc1 [Compound 75] | 135
O=c1[nH]c2scc(-c3ccc(Br)cc3O)c2c(O)c1-c1ccccc1 [Compound 77] | 257
O=c1[nH]c2scc(-c3c(F)cccc3F)c2c(O)c1-c1ccccc1 [Compound 78] | 160
COc1ccc(O)c(-c2csc3[nH]c(=O)c(-c4ccccc4)c(O)c23)c1 [Compound 79] | 593
COc1ccc(-c2csc3[nH]c(=O)c(-c4ccccc4)c(O)c23)c(O)c1 [Compound 81] | 223
COc1cc(-c2csc3[nH]c(=O)c(-c4ccccc4)c(O)c23)ccc1C [Compound 84] | 158
Cc1ccc(-c2csc3[nH]c(=O)c(-c4ccccc4)c(O)c23)cc1O [Compound 85] | 406
Cc1ccc(-c2csc3[nH]c(=O)c(-c4cccc(C#N)c4)c(O)c23)c(O)c1 [Compound 87] | 287
COc1cc(C)ccc1-c1c(Cl)sc2[nH]c(=O)c(-c3ccccc3)c(O)c12 [Compound 105] | 206
O=c1[nH]c2sc(Cl)c(-c3c(F)cccc3F)c2c(O)c1-c1ccccc1 [Compound 106, 2-chloro-3-(2,6-diflurophenyl)-4-hydroxy-5-phenyl-6,7-dihydro-thieno[2,3-b]pyridin-6-one] | 115
COc1ccc(-c2c(Cl)sc3[nH]c(=O)c(-c4ccccc4)c(O)c23)cc1F [Compound 110] | 121
O=c1[nH]c2sc(Cl)c(-c3cc(Cl)c(O)cc3F)c2c(O)c1-c1ccccc1 [Compound 113] | 95
O=c1[nH]c2sc(Cl)c(-c3ccc(F)cc3F)c2c(O)c1-c1ccccc1 [Compound 114] | 115
O=c1[nH]c2sc(Cl)c(-c3ccc(O)cc3F)c2c(O)c1-c1ccccc1 [Compound 116] | 120
O=c1[nH]c2sc(Cl)c(-c3cccc(CO)c3)c2c(O)c1-c1ccccc1 [Compound 124] | 195
O=C(O)c1cccc(-c2c(O)c3c(-c4ccc(F)cc4)c(Cl)sc3[nH]c2=O)c1 [Compound 130] | 117
O=c1[nH]c2sc(Cl)c(-c3ccc(O)cc3)c2c(O)c1-c1ccc(F)cc1 [Compound 132] | 108
CCCCc1ccc(-c2c(Cl)sc3[nH]c(=O)c(-c4ccccc4)c(O)c23)cc1 [Compound 134] | 93
Cc1ccc(-c2c(Cl)sc3[nH]c(=O)c(-c4ccccc4)c(O)c23)cc1 [Compound 135] | 113
CNC(=O)c1cccc(-c2c(O)c3c(-c4ccccc4)c(Cl)sc3[nH]c2=O)c1 [Compound 141] | 403
N=C(N)c1cccc(-c2c(O)c3c(-c4ccccc4)c(Cl)sc3[nH]c2=O)c1 [Compound 142] | 126
CS(=O)(=O)c1cccc(-c2c(O)c3c(-c4ccccc4)c(Cl)sc3[nH]c2=O)c1 [Compound 145] | 90
